The results in this text go back to article PMC2788200 (Nutrition Research and Practice, 2008).

For the assay, the target named is T1, 10-formyltetrahydrofolate dehydrogenase (FDH) (Rattus norvegicus, UniProt P28037).
T1 sequence (P28037 1-902): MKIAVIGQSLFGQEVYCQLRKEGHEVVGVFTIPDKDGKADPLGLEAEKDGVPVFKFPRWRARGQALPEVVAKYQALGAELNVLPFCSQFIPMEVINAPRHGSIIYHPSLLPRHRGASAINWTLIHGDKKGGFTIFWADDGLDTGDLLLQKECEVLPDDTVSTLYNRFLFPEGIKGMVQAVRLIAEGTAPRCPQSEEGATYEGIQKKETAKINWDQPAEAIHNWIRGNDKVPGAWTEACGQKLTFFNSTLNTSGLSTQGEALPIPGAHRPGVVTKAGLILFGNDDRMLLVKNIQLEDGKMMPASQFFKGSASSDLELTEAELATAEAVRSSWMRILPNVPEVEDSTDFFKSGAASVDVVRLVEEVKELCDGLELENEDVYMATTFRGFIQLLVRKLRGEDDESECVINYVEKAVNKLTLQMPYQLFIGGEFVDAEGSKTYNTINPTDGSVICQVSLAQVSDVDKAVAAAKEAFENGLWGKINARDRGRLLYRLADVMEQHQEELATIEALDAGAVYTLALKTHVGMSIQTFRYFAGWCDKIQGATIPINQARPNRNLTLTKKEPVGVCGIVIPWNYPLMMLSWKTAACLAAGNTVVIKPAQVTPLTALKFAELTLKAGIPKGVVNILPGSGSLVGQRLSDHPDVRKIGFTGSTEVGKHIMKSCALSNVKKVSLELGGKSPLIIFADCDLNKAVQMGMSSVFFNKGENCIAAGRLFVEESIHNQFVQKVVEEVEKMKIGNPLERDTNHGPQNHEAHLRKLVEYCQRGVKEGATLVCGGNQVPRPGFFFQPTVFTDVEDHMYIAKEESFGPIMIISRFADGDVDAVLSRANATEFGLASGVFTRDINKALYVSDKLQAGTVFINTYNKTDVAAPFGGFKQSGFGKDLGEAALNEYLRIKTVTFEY
The assay is described as follows: THF formation at […] nm with NADP+, hydrolytic rate subtracted. The assay is classed as biochemical.

Turning to `CC=O` [acetaldehyde], the 50% inhibitory concentration (IC50) was 4 mM.

Broadly, the IC50 is the midpoint of a concentration-inhibition curve. Read a low IC50 as greater potency in that assay.
